In patent US8293729B2 (Boehringer Ingelheim International GmbH, priority 2009, dated 2012):

Each compound was assayed against T1, human GPR119 receptor (Homo sapiens, UniProt Q8TDV5, S329A/T327A) (assay: cAMP assay (LANCE cAMP-384) in HEK293 cells stably expressing mutant human GPR119 receptor). Conditions: HEK293, 20 min; at 10 μM; printed in EC50 column of the 36th table; read-out: stimulation in % at 10 μM.
T1 construct: N-terminal leader […]; expressed in transfected cells
T1 sequence (Q8TDV5 with tags, fused parts or gaps T327A/S329A): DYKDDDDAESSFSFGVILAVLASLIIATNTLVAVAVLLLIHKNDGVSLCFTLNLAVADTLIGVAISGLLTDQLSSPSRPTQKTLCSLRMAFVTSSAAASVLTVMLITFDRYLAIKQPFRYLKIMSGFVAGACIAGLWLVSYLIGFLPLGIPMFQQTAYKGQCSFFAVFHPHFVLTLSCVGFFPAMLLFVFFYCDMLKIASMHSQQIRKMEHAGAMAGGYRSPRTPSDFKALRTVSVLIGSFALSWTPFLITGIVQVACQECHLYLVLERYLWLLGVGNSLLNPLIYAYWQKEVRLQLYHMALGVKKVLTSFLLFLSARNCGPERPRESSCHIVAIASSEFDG
Assay type: cell-based
Protocol: Quantitative detection of cAMP accumulation from cells expressing human GPR119 receptor was achieved using Perkin Elmer's LANCE cAMP-384 Kit (Cat#AD0264) according to the manufacturer's protocol. Briefly, HEK293 cells stably expressing a mutant form of the human GPR119 receptor (Methionine 1 replaced with the amino acid sequence […] (SEQ ID NO: 1), and T327 & S329 changed to alanines) were grown to 50-70% confluency in cell culture media (DMEM, 10% heat inactivated Fetal Bovine Serum, 50 I.U./mL penicillin, 50 μg/mL streptomycin, 10 mM HEPES, 20 μg/mL G418 Sulfate). On the day of the assay, GPR119 stable HEK293 cells were lifted from the tissue culture plate and 1000 cells/well were incubated along with various concentrations of test compounds for 20 min at 37° C. Detection Buffer (50mM HEPES, 10mM calcium chloride, 0.35% Triton X-100, 1 mg/mL BSA) containing cAMP-specific antibody was then added to all wells and allowed to equilibrate in the dark for 10 minutes at room temperature. Upon equilibration, Detection Buffer containing europium-labeled cAMP tracer complex was added to all wells and allowed to react for 1 hour at room temperature. After 1 hour, bound europium-labeled cAMP tracer was measured using a Perkin Elmer ViewLux. The quantity of cAMP generated in each well was derived from a standard curve. EC50 was determined using nonlinear regression analysis of the cAMP values over a range of agonist concentration (12 points spanning the range from 30 μM to 100pM).
For some compounds for which no EC50 value could be determined, the efficacy is provided at a single concentration (10 μM) yielding % stimulation values.
Compound CS(=O)(=O)c1ccc(N2CCC(=NOC3CCN(Cc4cccnc4Cl)CC3)CC2)c(F)c1 [Example 66-51] has an activation at 10 µM of 66%.

Same assay, conditions: HEK293, 20 min; single concentration 10 μM; given where no EC50 value could be determined; read-out: % stimulation at 10 μM
CC(C)OC(=O)N1CCC(ON=C2CCN(c3cc(F)c(C(=N)N)cc3F)CC2)CC1 [Example 23-1, 4-[1-(4-Carbamimidoyl-2,5-difluoro-phenyl)-piperidin-4-ylideneaminooxy]-piperidine-1-carboxylic acid isopropyl ester] was tested, and the activation at 10 µM was 3%.

Same assay, conditions: cAMP accumulation, HEK293 cells stably expressing mutant human GPR119; read-out: EC50
Cc1nnn(Cc2cc(F)c(N3CCC(=NOC4CCN(C(=O)OC(C)C)CC4)CC3)cc2F)n1 [Example 14-16] gave an EC50 of 256 nM. CC(C)OC(=O)N1CCC(ON=C2CCN(c3cc(F)c(C#N)cc3F)CC2)CC1 [Example 2-2] showed an EC50 of 397 nM. CC(C)OC(=O)N1CCC(ON=C2CCN(c3cc(F)ccc3F)CC2)CC1 [Example 32-2] gave an EC50 of 2860 nM. CC(C)OC(=O)N1CCC(ON=C2CCN(c3cc(F)c(Cn4cnnc4)cc3F)CC2)CC1 [Example 14-17] gave an EC50 of 28 nM. CC(C)OC(=O)N1CCC(ON=C2CCN(c3cc(F)c(NS(C)(=O)=O)cc3F)CC2)CC1 [Example 44-1, 4-[1-(2,5-Difluoro-4-methanesulfonylamino-phenyl)-piperidin-4-ylideneaminooxy]-piperidine-1-carboxylic acid isopropyl ester] showed an EC50 of 170 nM. Work on CC(C)OC(=O)N1CCC(ON=C2CCN(c3cc(F)c(CN4CCOC(CC(=O)O)C4)cc3F)CC2)CC1 (centres unmarked) [Example 5-2] yielded an EC50 of 5880 nM. With Cc1cccc(N2CCC(=NOC3CCN(C(=O)OC(C)C)CC3)CC2)n1 [Example 2-8] the EC50 was over 10000 nM. CC(C)OC(=O)N1CCC(ON=C2CCN(c3cc(F)c(-c4cc[nH]n4)cc3F)CC2)CC1 [Example 27-9] showed an EC50 of 232 nM. Work on CC(C)OC(=O)N1CCC(ON=C2CCN(c3cc(F)c(S(=O)(=O)C4CC4)cc3F)CC2)CC1 [Example 47-1, 4-[1-(4-Cyclopropanesulfonyl-2,5-difluoro-phenyl)-piperidin-4-ylideneaminooxy]-piperidine-1-carboxylic acid isopropyl ester] yielded an EC50 of 43 nM. With CC(C)OC(=O)N1CCC(ON=C2CCN(c3ccncc3)CC2)CC1 [Example 2-9] the EC50 was over 10000 nM. Compound CC(C)OC(=O)N1CCC(ON=C2CCN(c3cc(F)c(-c4cnn(C)c4)cc3F)CC2)CC1 [Example 27-34] has an EC50 of 126 nM. CC(C)OC(=O)N1CCC(ON=C2CCN(c3cc(F)c(CNC=O)cc3F)CC2)CC1 [Example 16-8] gave an EC50 of 120 nM. In the case of Cc1cnccc1N1CCC(=NOC2CCN(C(=O)OC(C)C)CC2)CC1 [Example 2-51], the EC50 is reported as 951 nM. Compound CC(C)OC(=O)N1CCC(ON=C2CCN(c3cc(F)c(C4SCCC[S+]4[O-])cc3F)CC2)CC1 (mixture of isomers) [Example 21-1, 4-{1-[2,5-Difluoro-4-(1-oxo-1 lambda*4*-[1,3]dithian-2-yl)-phenyl]-piperidin-4-ylideneaminooxy}-piperidine-1-carboxylic acid isopropyl ester] has an EC50 of 143 nM. With CC(C)OC(=O)N1CCC(ON=C2CCN(c3cc4[nH]cnc(=O)c4cc3F)CC2)CC1 [Example 2-61] the EC50 was over 10000 nM. With COc1ccc(-c2cc(F)c(N3CCC(=NOC4CCN(C(=O)OC(C)C)CC4)CC3)cc2F)cn1 [Example 27-33] the EC50 was 891 nM. CC(C)OC(=O)N1CCC(ON=C2CCN(c3cc(F)c(Cn4cccc4)cc3F)CC2)CC1 [Example 14-14] gave an EC50 of 467 nM. Cc1nnnn1Cc1cc(F)c(N2CCC(=NOC3CCN(C(=O)OC(C)C)CC3)CC2)cc1F [Example 14-15] gave an EC50 of 39 nM. Compound CC(C)OC(=O)N1CCC(ON=C2CCN(c3c(F)c(F)c(C(N)=O)c(F)c3F)CC2)CC1 [Example 2-57] has an EC50 of 56 nM.

Same assay, conditions: the 15th table; read-out: EC50
Work on CC(C)OC(=O)N1CCC(ON=C2CCN(c3cc(F)c(C(=O)N(C)C)cc3F)CC2)CC1 [Example 29-1, 4-[1-(4-Dimethylcarbamoyl-2,5-difluoro-phenyl)-piperidin-4-ylideneaminooxy]-piperidine-1-carboxylic acid isopropyl ester] yielded an EC50 of 129 nM. CC(C)OC(=O)N1CCC(ON=C2CCN(c3cc(F)c(C(=O)NCCCO)cc3F)CC2)CC1 [Example 29-9] gave an EC50 of 94 nM.

Same assay, conditions: the 19th table; unit inferred; read-out: EC 50
CCc1cnc(N2CCC(ON=C3CCN(c4cc(F)c(C(=O)N5C[C@@H]6C[C@H]5CN6)cc4F)CC3)CC2)nc1 [Example 29-115] gave an EC50 of 2010 nM. For CCc1cnc(N2CCC(ON=C3CCN(c4cc(F)c(C(=O)NC5CCNC5)cc4F)CC3)CC2)nc1 (centres unmarked) [Example 29-123], the EC50 was 407 nM. For CCc1cnc(N2CCC(ON=C3CCN(c4cc(F)c(C(=O)N5C[C@H]6CNC[C@H]6C5)cc4F)CC3)CC2)nc1 [Example 29-111], the EC50 was 295 nM.

Same assay, conditions: the 32nd table; read-out: EC50
With CS(=O)(=O)c1ccc(N2CCC(=NOC3CCN(c4ncccn4)CC3)CC2)c(F)c1 [Example 63-8] the EC50 was 238 nM. For CCOC(=O)c1ccc(N2CCC(ON=C3CCN(c4ccc(S(C)(=O)=O)cc4F)CC3)CC2)nc1 [Example 63-26], the EC50 was over 10000 nM.

Same assay, conditions: the 33rd table; read-out: EC50
CS(=O)(=O)c1ccc(N2CCC(=NOC3CCN(C(=O)OCCC4CC4)CC3)CC2)c(F)c1 [Example 64-39] gave an EC50 of 127 nM. CC(C)N(CCOC(=O)N1CCC(ON=C2CCN(c3ccc(S(C)(=O)=O)cc3F)CC2)CC1)C(C)C [Example 64-32] showed an EC50 of over 10000 nM. With CN1CCC(OC(=O)N2CCC(ON=C3CCN(c4ccc(S(C)(=O)=O)cc4F)CC3)CC2)C1 (centres unmarked) [Example 64-13] the EC50 was over 10000 nM. CC(C)CCOC(=O)N1CCC(ON=C2CCN(c3ccc(S(C)(=O)=O)cc3F)CC2)CC1 [Example 64-40] was tested, and the EC50 was 89 nM.

Same assay, conditions: the 34th table, compounds 65-1 to 65-24; read-out: EC50
With CS(=O)(=O)c1ccc(N2CCC(=NOC3CCN(S(=O)(=O)c4ccccc4)CC3)CC2)c(F)c1 [Example 65-18] the EC50 was 1100 nM. In the case of CS(=O)(=O)c1ccc(N2CCC(=NOC3CCN(C(=S)NC4CCCCC4)CC3)CC2)c(F)c1 [Example 65-9], the EC50 is reported as 1800 nM. CC(C)(C)COC(=O)N1CCC(ON=C2CCN(c3ccc(S(C)(=O)=O)cc3F)CC2)CC1 [Example 65-7] showed an EC50 of 57 nM. CC(C)(C)NC(=O)N1CCC(ON=C2CCN(c3ccc(S(C)(=O)=O)cc3F)CC2)CC1 [Example 65-11] gave an EC50 of 1040 nM.

Same assay, conditions: the 36th table, compounds 66-1 to 66-51; read-out: EC50
In the case of CS(=O)(=O)c1ccc(N2CCC(=NOC3CCN(Cc4ncco4)CC3)CC2)c(F)c1 [Example 66-20], the EC50 is reported as over 10000 nM. CCOc1ccc(CN2CCC(ON=C3CCN(c4ccc(S(C)(=O)=O)cc4F)CC3)CC2)cc1 [Example 66-46] gave an EC50 of 418 nM. CS(=O)(=O)c1ccc(N2CCC(=NOC3CCN(Cc4ccccc4C(F)(F)F)CC3)CC2)c(F)c1 [Example 66-29] gave an EC50 of 1220 nM. CS(=O)(=O)c1ccc(N2CCC(=NOC3CCN(Cc4cccc(C(F)(F)F)c4)CC3)CC2)c(F)c1 [Example 66-30] gave an EC50 of 1740 nM.

Same assay, conditions: the 37th table, compounds 66-52 to 66-64; read-out: EC50
For Cc1ccc(CN2CCC(ON=C3CCN(c4cc(F)c(S(C)(=O)=O)cc4F)CC3)CC2)cc1 [Example 66-54], the EC50 was 44 nM. C/C=C/c1ccc(CN2CCC(ON=C3CCN(c4cc(F)c(S(C)(=O)=O)cc4F)CC3)CC2)c(F)c1 [Example 66-62] gave an EC50 of 136 nM. In the case of CCCc1ccc(CN2CCC(ON=C3CCN(c4cc(F)c(S(C)(=O)=O)cc4F)CC3)CC2)cc1 [Example 66-53], the EC50 is reported as 35 nM.

Same assay, conditions: the 43rd table, compounds 75-1 to 75-38; read-out: EC50
CC(C)OC(=O)N1CCC(ON=C2CCN(c3cc(F)c(CC(=O)NCCN)cc3F)CC2)CC1 [Example 75-24] gave an EC50 of 410 nM. Work on CC(C)OC(=O)N1CCC(ON=C2CCN(c3cc(F)c(CC(=O)NCC4CCCNC4)cc3F)CC2)CC1 (centres unmarked) [Example 75-23] yielded an EC50 of 380 nM. Work on CC(C)OC(=O)N1CCC(ON=C2CCN(c3cc(F)c(CC(=O)N4CC[C@H](CN)C4)cc3F)CC2)CC1 [Example 75-15] yielded an EC50 of 29 nM. Work on CC(C)OC(=O)N1CCC(ON=C2CCN(c3cc(F)c(CC(=O)NCC4CCNC4)cc3F)CC2)CC1 (centres unmarked) [Example 75-27] yielded an EC50 of 797 nM. With CC(C)OC(=O)N1CCC(ON=C2CCN(c3cc(F)c(CC(=O)NC4CCCNC4)cc3F)CC2)CC1 (centres unmarked) [Example 75-16] the EC50 was 122 nM. CC(C)OC(=O)N1CCC(ON=C2CCN(c3cc(F)c(CC(=O)N4CCCCC4CN4CCCC4)cc3F)CC2)CC1 (centres unmarked) [Example 75-30] gave an EC50 of 333 nM.

Same assay, conditions: the 44th table, compounds 77-1 to 77-14; read-out: EC50
For CCc1cnc(N2CCC(ON=C3CCN(c4cc(F)c(CC(=O)N5CCC(N)CC5)cc4F)CC3)CC2)nc1 [Example 77-2], the EC50 was 22 nM.
